These results are taken from ChEMBL document CHEMBL3769406, “A phenotypic drug discovery study on thienodiazepine derivatives as inhibitors of T cell proliferation induced by CD28 co-stimulation leads to the discovery of a first bromodomain inhibitor” (Bioorg Med Chem Lett, 2016).

By IC50 is commonly meant the concentration that gives 50% inhibition. The GI50 is the concentration giving 50% growth inhibition. A higher GI50 goes with lower sensitivity of the cells.

Activity calls are given as the source filed them. No cut-off for these calls is given here.

The nature of test [1]: Immunosuppressive activity in BALB/c mouse splenic T cells assessed as inhibition of PMA/CD28 induced cell proliferation after 24 hrs by [methyl-3H]thymidine incorporation assay. The test is classed as functional, cell-based. In general terms: Uptake of a labelled nucleoside into DNA is a usual measure of proliferation.
Test [2] is described as follows: Cytotoxicity against mouse M1 cells after 72 hrs by WST-8 assay. The test is classed as functional. The following applies: M1, 72 h.
Test [3] is described as follows: Cytotoxicity against human HL60 cells after 72 hrs by WST-8 assay. It counts as functional. To be noted: HL-60, 72 h.
Another test relates to A2780. Briefly: Cytotoxicity against human A2780 cells after 72 hrs by WST-8 assay. It counts as functional. The following applies: A2780, 72 h.
Test [4] is described as follows: Cytotoxicity against human SKOV3 cells after 72 hrs by WST-8 assay. The test is classed as functional. The following applies: SK-OV-3, 72 h. A general note: Tetrazolium assays rely on reduction of a dye to a coloured formazan, in cell work by metabolically active cells.
For another test, the system named is Mus musculus. In words: Immunosuppressive activity in collagen-induced DBA/1J mouse arthritis model at 0.3 to 1 mg/kg, po administered for […] of immunization with bovine type II collagen measured at 21 to 42 days after primary immunization. The test is classed as functional, organism-based.
The target of test [5] is Bromodomain-containing protein 2 (Homo sapiens) (UniProt P25440). In words: Competitive inhibition of BRD2 in PMA /ionomycin activated human Jurkat cell lysate in presence of (S)-4-{3'-Cyano-4'-[3-(3-{2-[5-((3aR,6S,6aS)-2-oxo-hexahydro-thieno[3,4-d]imidazol-6-yl)-pentanoylamino]-ethyldisulfanyl}-propionylamino)-propoxy]-biphenyl-4-yl}-2,3,9-trimethyl-6H-1-thia-5,7,8,9a-tetraaza-cyclopenta[e]azulene-6-yl]acetic acid ethyl ester/avidin-resin by pull down assay. The test is classed as cell-based.
Bromodomain-containing protein 2 (Homo sapiens), sequence (P25440 whole entry, looked up): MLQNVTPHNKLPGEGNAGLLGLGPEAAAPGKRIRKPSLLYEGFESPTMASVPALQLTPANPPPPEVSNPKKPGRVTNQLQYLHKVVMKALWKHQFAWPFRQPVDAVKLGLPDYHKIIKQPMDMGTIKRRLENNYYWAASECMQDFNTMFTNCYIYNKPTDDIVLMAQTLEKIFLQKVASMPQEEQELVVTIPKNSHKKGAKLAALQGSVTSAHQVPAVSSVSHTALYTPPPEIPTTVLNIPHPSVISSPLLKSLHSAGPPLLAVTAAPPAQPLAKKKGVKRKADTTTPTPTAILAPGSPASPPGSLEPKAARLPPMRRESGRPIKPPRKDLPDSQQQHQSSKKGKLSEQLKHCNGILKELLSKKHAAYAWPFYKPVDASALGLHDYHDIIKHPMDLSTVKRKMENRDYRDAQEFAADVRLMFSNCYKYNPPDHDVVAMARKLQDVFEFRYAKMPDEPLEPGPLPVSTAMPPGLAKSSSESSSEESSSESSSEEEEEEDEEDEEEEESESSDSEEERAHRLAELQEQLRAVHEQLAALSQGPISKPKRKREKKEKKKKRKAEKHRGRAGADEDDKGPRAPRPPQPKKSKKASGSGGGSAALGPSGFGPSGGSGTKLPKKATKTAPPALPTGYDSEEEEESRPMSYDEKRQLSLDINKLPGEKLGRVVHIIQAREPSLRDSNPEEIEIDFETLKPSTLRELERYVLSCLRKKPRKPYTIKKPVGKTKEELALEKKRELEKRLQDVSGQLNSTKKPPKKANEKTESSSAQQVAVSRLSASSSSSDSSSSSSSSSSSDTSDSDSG

The target of test [6] is Bromodomain-containing protein 3 (Homo sapiens) (UniProt Q15059). In words: Competitive inhibition of BRD3 in PMA /ionomycin activated human Jurkat cell lysate in presence of (S)-4-{3'-Cyano-4'-[3-(3-{2-[5-((3aR,6S,6aS)-2-oxo-hexahydro-thieno[3,4-d]imidazol-6-yl)-pentanoylamino]-ethyldisulfanyl}-propionylamino)-propoxy]-biphenyl-4-yl}-2,3,9-trimethyl-6H-1-thia-5,7,8,9a-tetraaza-cyclopenta[e]azulene-6-yl]acetic acid ethyl ester/avidin-resin by pull down assay. It counts as cell-based.
Bromodomain-containing protein 3 (Homo sapiens), sequence (Q15059 2-726 limits assumed): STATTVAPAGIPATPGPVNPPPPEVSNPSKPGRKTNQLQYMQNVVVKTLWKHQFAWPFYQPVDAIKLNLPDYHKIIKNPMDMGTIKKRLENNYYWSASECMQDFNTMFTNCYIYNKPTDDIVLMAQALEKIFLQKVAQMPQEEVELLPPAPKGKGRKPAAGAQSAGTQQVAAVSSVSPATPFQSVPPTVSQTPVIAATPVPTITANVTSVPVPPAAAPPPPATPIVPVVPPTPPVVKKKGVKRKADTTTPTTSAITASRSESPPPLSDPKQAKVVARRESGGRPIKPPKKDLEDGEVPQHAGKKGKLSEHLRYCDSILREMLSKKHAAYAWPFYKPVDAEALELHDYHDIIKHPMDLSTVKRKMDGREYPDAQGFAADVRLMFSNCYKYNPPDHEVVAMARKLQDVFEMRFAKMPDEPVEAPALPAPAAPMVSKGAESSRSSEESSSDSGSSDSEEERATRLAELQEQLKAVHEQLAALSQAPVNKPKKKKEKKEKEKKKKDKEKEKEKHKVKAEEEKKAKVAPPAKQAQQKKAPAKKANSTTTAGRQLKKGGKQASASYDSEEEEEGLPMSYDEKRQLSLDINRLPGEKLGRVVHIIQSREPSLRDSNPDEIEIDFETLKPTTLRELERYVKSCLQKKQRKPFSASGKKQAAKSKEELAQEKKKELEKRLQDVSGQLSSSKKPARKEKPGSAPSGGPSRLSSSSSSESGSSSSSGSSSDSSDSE

The target of test [7] is T1, Bromodomain-containing protein 4 (Homo sapiens, UniProt O60885). In words: Competitive inhibition of BRD4 in PMA /ionomycin activated human Jurkat cell lysate in presence of (S)-4-{3'-Cyano-4'-[3-(3-{2-[5-((3aR,6S,6aS)-2-oxo-hexahydro-thieno[3,4-d]imidazol-6-yl)-pentanoylamino]-ethyldisulfanyl}-propionylamino)-propoxy]-biphenyl-4-yl}-2,3,9-trimethyl-6H-1-thia-5,7,8,9a-tetraaza-cyclopenta[e]azulene-6-yl]acetic acid ethyl ester/avidin-resin by pull down assay. It counts as cell-based.

Test [8] has as its target T1, Bromodomain-containing protein 4. In words: Inhibition of Flag-tagged BRD4 (unknown origin)-biotinylated AcH4 (Lys5, 8, 12, 16) histone peptide binding expressed in CHO cells after 60 mins by TR-FRET assay. The test is classed as cell-based. A general note: In TR-FRET formats the signal depends on donor and acceptor labels being close together.
In test [9] the target is Bromodomain-containing protein 3 (Homo sapiens) (UniProt Q15059). Briefly: Inhibition of Flag-tagged BRD3 (unknown origin)-biotinylated AcH4 (Lys5, 8, 12, 16) histone peptide binding expressed in CHO cells after 60 mins by TR-FRET assay. It counts as cell-based.
For test [10], the target named is Bromodomain-containing protein 2 (Homo sapiens) (UniProt P25440). Briefly: Inhibition of Flag-tagged BRD2 (unknown origin)-biotinylated AcH4 (Lys5, 8, 12, 16) histone peptide binding expressed in CHO cells after 60 mins by TR-FRET assay. It counts as cell-based.
The nature of test [11]: Cytotoxicity against human MV411 cells after 72 hrs by WST-8 assay. The test is classed as functional. The following applies: MV4-11, 72 h.
The next test deals with Daudi. Briefly: Cytotoxicity against human Daudi cells after 72 hrs by WST-8 assay. The test is classed as functional.
Test [12] can be described thus: Cytotoxicity against human U937 cells after 72 hrs by WST-8 assay. It counts as functional. The following applies: U-937, 72 h.
A short description of test [13]: Cytotoxicity against human RPMI8226 cells after 72 hrs by WST-8 assay. It counts as functional. To be noted: RPMI-8226, 72 h.
In another test the test system is B16. Briefly: Cytotoxicity against mouse B16 cells after 72 hrs by WST-8 assay. The test is classed as functional. To be noted: B16, 72 h.
Test [14] in a line: Cytotoxicity against human KIM1 cells after 72 hrs by WST-8 assay. To be noted: KIM1, 72 h. It counts as functional.
A further test has as its system LNCaP. Briefly: Cytotoxicity against human LNCAP cells after 72 hrs by WST-8 assay. It counts as functional.
The nature of test [15]: Cytotoxicity against human EBC1 cells after 72 hrs by WST-8 assay. The test is classed as functional. The following applies: EBC-1, 72 h.
The subject of another test is A549. Briefly: Cytotoxicity against human A549 cells after 72 hrs by WST-8 assay. It counts as functional. To be noted: A549, 72 h.
The nature of test [16]: Cytotoxicity against human LN18 cells after 72 hrs by WST-8 assay. The test is classed as functional. To be noted: LN-18, 72 h.
Test [17] is described as follows: Cytotoxicity against human U87MG cells after 72 hrs by WST-8 assay. To be noted: U-87 MG. It counts as functional, U-87MG ATCC.
A further test deals with HeLa. Briefly: Cytotoxicity against human HeLa cells after 72 hrs by WST-8 assay. The test is classed as functional.
Test [18] is described as follows: Cytotoxicity against human COLO205 cells after 72 hrs by WST-8 assay. It counts as functional. The following applies: COLO 205, 72 h.
Test [19] in a line: Cytotoxicity against mouse LLC cells after 72 hrs by WST-8 assay. It counts as functional. The following applies: Lewis lung carcinoma.
Test [20] is described as follows: Antitumor activity against human HL60 cells xenografted in nude mouse assessed as inhibition of relative tumor growth at 10 mg/kg, po qd administered for 14 days. The test is classed as functional. The following applies: HL-60, po, 336 h, read-out: TGI.
Test [21] is described as follows: Antitumor activity against human HL60 cells xenografted in nude mouse assessed as inhibition of relative tumor growth at 30 mg/kg, po qd administered for 14 days. The test is classed as functional. To be noted: HL-60, po, 336 h, read-out: TGI.
Test [22] in a line: Antitumor activity against human HL60 cells xenografted in nude mouse assessed as inhibition of relative tumor growth at 10 mg/kg, po bid administered for 14 days. The test is classed as functional. The following applies: HL-60, po, 336 h, read-out: TGI.

For `Cc1sc2c(c1C)C(c1ccc(Cl)cc1)=N[C@@H](CC(=O)OC(C)(C)C)c1nnc(C)n1-2`, the IC50 in test [1] stood at 0.11 µM. Take `COC(=O)C[C@H]1N=C(c2ccc(Cl)cc2)c2c(sc(C)c2C)-n2c(C)nnc21`: the 50% inhibitory concentration (IC50) in [1] is more than 10 µM.

As to `COC(=O)C[C@@H]1N=C(c2ccc(-c3cccc(S(C)(=O)=O)c3)cc2)c2c(sc(C)c2C)-n2c(C)nnc21`, the IC50 in test [1] is 0.0098 µM. Regarding `COC(=O)C[C@@H]1N=C(c2ccc(-c3cccc(OC(F)(F)F)c3)cc2)c2c(sc(C)c2C)-n2c(C)nnc21`, the IC50 in test [1] is 0.16 µM. Same read-out and setting: for `COC(=O)C[C@@H]1N=C(c2ccc(Cl)cc2)c2c(sc(C)c2C)-n2c(C)nnc21` the value was 0.038 µM; for `Cc1sc2c(c1C)C(c1ccc(Cl)cc1)=NC(Cc1ccccc1)c1nnc(C)n1-2` (racemic), 0.5 µM; for `COC(=O)C[C@@H]1N=C(c2ccc(-c3ccccc3C#N)cc2)c2c(sc(C)c2C)-n2c(C)nnc21`, 0.18 µM. On the same count and under the same terms, in the case of `CCC1N=C(c2ccc(Cl)cc2)c2c(sc(C)c2C)-n2c(C)nnc21` (racemic) it was 0.34 µM; in that of `Cc1sc2c(c1C)C(c1ccc(Cl)cc1)=N[C@@H](CCC#N)c1nnc(C)n1-2`, 0.1 µM. On the same count and under the same terms, in the case of `Cc1sc2c(c1C)C(c1ccc(Cl)cc1)=NC(CCc1ccccc1)c1nnc(C)n1-2` (racemic) it was 2.68 µM; in that of `Cc1sc2c(c1C)C(c1ccc(Cl)cc1)=NC(Cc1cccnc1)c1nnc(C)n1-2` (racemic), 0.4 µM; in that of `COC(=O)C[C@@H]1N=C(c2ccc(-c3cccc(C(C)=O)c3)cc2)c2c(sc(C)c2C)-n2c(C)nnc21`, 0.015 µM. Take `Cc1sc2c(c1C)C(c1ccc(Cl)cc1)=N[C@@H](CCO)c1nnc(C)n1-2`: the half-inhibitory concentration (IC50) in test [1] was determined as 0.58 µM. As to `COCC[C@@H]1N=C(c2ccc(Cl)cc2)c2c(sc(C)c2C)-n2c(C)nnc21`, the concentration for half-maximal inhibition (IC50) in test [1] is 0.39 µM.

For the molecule `CCOC(=O)C[C@@H]1N=C(c2ccc(Cl)cc2)c2c(sc(C)c2C)-n2c(C)nnc21`, the IC50 in test [1] was 0.012 µM. On the same count and under the same terms, in the case of `COC(=O)C[C@@H]1N=C(c2ccc(-c3cccc(NC(C)=O)c3)cc2)c2c(sc(C)c2C)-n2c(C)nnc21` it was 0.027 µM. As for `COC(=O)C[C@@H]1N=C(c2ccc(-c3cccc(O)c3)cc2)c2c(sc(C)c2C)-n2c(C)nnc21`, the IC50 in test [1] was determined as 0.032 µM. Same read-out and setting: for `Cc1sc2c(c1C)C(c1ccc(Cl)cc1)=N[C@@H](CC(=O)OC(C)C)c1nnc(C)n1-2` the value was 0.044 µM. With `COC(=O)C[C@@H]1N=C(c2ccc(-c3cccc(C#N)c3)cc2)c2c(sc(C)c2C)-n2c(C)nnc21`, the GI50 in test [2] was found to be 0.003 µM; in [3], 0.007 µM; in the test on A2780, 0.13 µM; in test [4], 5.27 µM; in [11], 0.019 µM; in the test with Daudi, 0.067 µM. Moreover, the GI50 in test [12] was 0.829 µM; in test [13], 0.069 µM; in the test with B16 it was 0.08 µM; in test [14], 0.104 µM; in the test with LNCaP, 0.201 µM; in test [15], 0.207 µM. In addition, the 50% growth inhibitory concentration (GI50) is more than 10 µM in the test with A549; 0.207 µM in [16]; more than 10 µM in test [17]; 0.274 µM in the test on HeLa; 0.484 µM in [18]; 1.5 µM in [19]. In addition, the IC50 in test [1] is 0.026 µM; in test [8], 0.0339 µM. In the test on Mus musculus, the outcome was Active. Also, the inhibition entry in [5], in test [6] and in test [7] was “Dose-dependent effect” in each case. In addition, the inhibition entry in test [9] and in test [10] was “Active” throughout. Also, the inhibition in vivo at 10 mg/kg stood at 43% in [20] and 80% in test [22]. In addition, in [21], the inhibition in vivo at 30 mg/kg turned out to be 65%. As to `Cc1sc2c(c1C)C(c1ccc(Cl)cc1)=NC(Cc1ccccn1)c1nnc(C)n1-2` (racemic), the half-inhibitory concentration (IC50) in test [1] stood at 0.33 µM. On the same count and under the same terms, for `COC(=O)C[C@@H]1N=C(c2ccc(-c3ccc(OC)cc3)cc2)c2c(sc(C)c2C)-n2c(C)nnc21` the value was 0.053 µM. As to `COC(=O)C[C@@H]1N=C(c2ccc(-c3ccccc3OC)cc2)c2c(sc(C)c2C)-n2c(C)nnc21`, the IC50 in [1] is 0.19 µM. Consider `Cc1sc2c(c1C)C(c1ccc(Cl)cc1)=NCc1nnc(C)n1-2`, for which the IC50 in [1] was 2.5 µM. With `Cc1sc2c(c1C)C(c1ccc(Cl)cc1)=N[C@@H](CC(=O)OCc1ccccc1)c1nnc(C)n1-2`, the IC50 in test [1] was determined as 0.036 µM.

For the molecule `COC(=O)C[C@@H]1N=C(c2ccc(-c3cccc(OC)c3)cc2)c2c(sc(C)c2C)-n2c(C)nnc21`, the 50% inhibitory concentration (IC50) in test [1] came out at 0.036 µM. The same measure, in the same setting: for `COC(=O)CC1N=C(c2ccc(-c3ccccc3)cc2)c2c(sc(C)c2C)-n2c(C)nnc21` (racemic) the value was 0.22 µM. Still for that read-out and setting: in the case of `CCCOC(=O)C[C@@H]1N=C(c2ccc(Cl)cc2)c2c(sc(C)c2C)-n2c(C)nnc21` it was 0.03 µM.

In the case of `COC(=O)C[C@H]1N=C(c2ccc(-c3cccc(C#N)c3)cc2)c2c(sc(C)c2C)-n2c(C)nnc21`, the inhibition result in test [5], in [6] and in [7] was “inactive” throughout. Turning to `Cc1sc2c(c1C)C(c1ccc(Cl)cc1)=NC(Cc1ccncc1)c1nnc(C)n1-2` (racemic), in [1], the IC50 was 0.24 µM. Same read-out and setting: for `COC(=O)C[C@@H]1N=C(c2ccc(-c3ccc(C#N)cc3)cc2)c2c(sc(C)c2C)-n2c(C)nnc21` the value was 0.033 µM.

As to `Cc1sc2c(c1C)C(c1ccc(Cl)cc1)=NC(C)c1nnc(C)n1-2` (racemic), the IC50 in test [1] came out at 0.39 µM. On the same count and under the same terms, for `COC(=O)C[C@@H]1N=C(c2ccc(-c3ccc(O)c(C#N)c3)cc2)c2c(sc(C)c2C)-n2c(C)nnc21` the value was 0.0025 µM.
